Several values for one entry are separate records, joined by “and”; a condition that tells them apart may be missing. Equal values may be shown once. Entries after “also recorded” stand apart in the source; their conditions may differ.
System: histology-confirmed tumor and normal tissue
Test: Postoperative tissue slice fluorescence imaging (LI-COR Pearl; MFI, CNR, TBR, ROC) correlated with histopathology
Assay type: in vivo, human
Details: for Ex Vivo Tissue Slice CNR / Ex Vivo Tissue Slice TBR: per patient, LI-COR Pearl
Excerpt: Timing of postoperative tissue slice imaging was adapted to accommodate the differences in the SOC for specimen processing of the different tumor types. Briefly, BC specimens were sliced fresh on the day of surgery and then formalin fixed, other tumor types were sliced after formalin fixation of the whole resection specimen 1 to 3 days after surgery. Generally, the surgical specimen was serially sliced into ±0.5 cm thick tissue slices. White light photographs were made during and directly after slicing for orientation purposes. After slicing, fluorescence imaging on both sides of each tissue slice was performed in a light-tight environment (LI-COR PEARL® Trilogy system). BC slices were therefore imaged approximately 120 min after excision, other tumor types were sliced and imaged the subsequent day(s) after excision and formalin fixation.
Each BLS underwent overnight formalin fixation in 4% paraformaldehyde/phosphate buffered saline. The pathologist then macroscopically sampled parts of BLS (FFPE embedding) for further analysis according to SOC and preparation of 4 μm slices for hematoxylin and eosin (H/E) staining to delineate tumor tissue for histopathological correlation. Additional FFPE blocks could be embedded based on fluorescence imaging of the BLS additional to the SOC examination by conventional macroscopic visual inspection of the pathologist. A standardized workflow was executed in order to cross-correlate final histopathology results with recorded fluorescence images of tissue slices of interest. FFPE blocks were scanned after 7 to 14 days using the Odyssey Flatbed Scanner (LI-COR Bioscience).
After the SOC pathological procedure was performed (approximately 7-10 days for Phase 1a and 7-14 days for Phase 1b), H/E slices were reviewed and discussed with the dedicated board-certified pathologist for the respective tumor type.
A correlation between HE slices and fluorescence images (i.e., bread loaf slice or BLS) were made using Adobe Illustrator and Fiji (ImageJ). After precisely and manually drawing the region of interest (ROI) containing tumor and background based on the histopathological outcome, a CNR was calculated for each LI-COR PEARL image of a separate BLS for each patient. The median CNR was calculated based on all available BLS containing tumor.
Compound 1 fluorescence images were captured from the postoperative specimens (BLS specimens) prepared at each step of the standard pathology for the purposes of correlating Compound 1 fluorescence with histopathological finding of the tumor and the normal tissue. LI COR PEARL, a laboratory camera with capabilities to standardize imaging and fluorescence quantification, was used to compare fluorescence intensity across multiple specimens.
Intraoperative fluorescence intensity cannot be standardized and compared between patients or dose levels due to the unique presentation of each surgical environment. Multiple variables such as camera angle, camera-tissue distance, tumor location, and coverage by other tissues or fat affect the absolute value of the fluorescence signal. To enable direct comparison of MFI across patients and doses, patient tissue slices were imaged with LI-COR Pearl, the standardizable close field camera, using the standard postoperative workflow for fluorescence.

PEO90-140-b-P(DBA60-150-r-ICG0-3-r-AMA0-3) [Compound 1]
Ex Vivo Tissue Slice CNR (0.1 mg/kg, HNSCC): 3.5 and 3.2 and 0.9 | Ex Vivo Tissue Slice TBR (0.1 mg/kg, HNSCC): 4.5 (2×) and 1.9 | Ex Vivo Tissue Slice CNR (0.3 mg/kg, BC): 7.0 and 14.1 and 3.2 | Ex Vivo Tissue Slice TBR (0.3 mg/kg, BC): 4.5 and 27.0 and 4.2 | Ex Vivo Tissue Slice CNR (0.5 mg/kg, BC): 6.4 | Ex Vivo Tissue Slice TBR (0.5 mg/kg, BC): 5.0 | Ex Vivo Tissue Slice CNR (0.5 mg/kg, HNSCC): 3.1 and 1.8 | Ex Vivo Tissue Slice TBR (0.5 mg/kg, HNSCC): 3.9 and 2.2 | Ex Vivo Tissue Slice CNR (0.8 mg/kg, BC): 5.7 and 9.2 | Ex Vivo Tissue Slice TBR (0.8 mg/kg, BC): 8.0 and 11.9 | Ex Vivo Tissue Slice CNR (0.8 mg/kg, HNSCC): 4.8 | Ex Vivo Tissue Slice TBR (0.8 mg/kg, HNSCC): 5.9 | Ex Vivo Tissue Slice CNR (1.2 mg/kg, BC): 3.9 and 10.5 and 7.6 and 3.4 | Ex Vivo Tissue Slice TBR (1.2 mg/kg, BC): 4.8 and 14.2 and 12.0 and 4.2 | Ex Vivo Tissue Slice CNR (1.2 mg/kg, CRC): 12.8 | Ex Vivo Tissue Slice TBR (1.2 mg/kg, CRC): 16.9 | Ex Vivo Tissue Slice CNR (1.2 mg/kg, EC): 2.9 and 2.1 | Ex Vivo Tissue Slice TBR (1.2 mg/kg, EC): 3.4 and 3.2 | Ex Vivo Tissue Slice CNR (1.2 mg/kg, HNSCC): 2.4 and 1.9 (2×) and 3.5 (2×) and 2.8 and 4.4 | Ex Vivo Tissue Slice TBR (1.2 mg/kg, HNSCC): 2.9 and 2.2 and 5.4 and 3.7 and 2.5 and 6.5 and 5.2 | Patient tumor specimens with postoperative imaging feasibility (Phase 1a, 0.1 to 1.2 mg/kg): 15 | Tumor MFI compared with non-tumor tissue (all dose cohorts): significantly higher | Median tumor-to-background ratio (TBR) (all tissue slices (n=97 from 26 subjects), IQR 3.1): 4.5 | Postoperative fluorescence of tumors (all tumor types and doses): fluoresced in tissue slices from all the patients and tumor types; also recorded: all tumors irrespective of tumor type or dose were fluorescent | Tumor MFI in relation to dose (postoperative tissue slices, 0.1 to 1.2 mg/kg): increased with dose | ROC curve AUC (tissue slices, 1.2 mg per kg dose cohort, n=59): 0.9875 | ROC curve area under the curve (tissue slices, measurement level, P<0.0001): 0.9726 | TBR (tissue slices, 1.2 mg/kg, IQR 3.0): 4.5
